From the supplement of paper PMC8617591

How the values were obtained:
[1] = test system: Mycobacterium tuberculosis Erdman (autoluminescent); assay: FIC90 (Loewe) at 90% inhibition (log2); higher = more antagonistic
Procedure: (§1)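 DiaMOND equipotent two-drug combination dose responses against autoluminescent M. tuberculosis Erdman in 8 in vitro models. Read-out is OD600, or luminescence for the intracellular and dormancy models, normalised to untreated wells. Hill-fit Einf, AUC25 and GRinf are potency metrics; FIC50 and FIC90 are Loewe-additivity fractional inhibitory concentrations, given as log2 (negative = synergy). Replicates are averaged.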

[2] = test system: Mycobacterium tuberculosis Erdman (autoluminescent); assay: FIC50 (Loewe) at 50% inhibition (log2); higher = more antagonistic
Procedure: as §1

[3] = test system: Mycobacterium tuberculosis Erdman (autoluminescent); assay: Einf, fitted maximum growth inhibition of combination (fraction); higher = stronger maximal inhibition
Procedure: as §1

[4] = test system: Mycobacterium tuberculosis Erdman (autoluminescent); assay: AUC25, normalised area under dose response up to IC25 (fraction (0-1)); higher = more potent at low dose
Procedure: as §1

[5] = test system: Mycobacterium tuberculosis Erdman (autoluminescent); assay: GRinf, maximum normalised growth rate inhibition (unitless (-1 to 1)); higher = less effect (negative = killing)
Procedure: as §1

CC[C@@H](CO)NCCN[C@@H](CC)CO [ethambutol] + NC(=O)c1cnccn1 [pyrazinamide]
Settings	AUC25, [4]	Einf, [3]	FIC50, [2]	FIC90, [1]	GRinf, [5]
in vitro model: acidic pH 5.7, time point: constant (~7 days, model-specific)	0.0998	0.866	-0.632	–	-0.453
in vitro model: acidic pH 5.7, time point: terminal (~4-5 doublings, model-specific)	0.0625	0.968	0.212	-0.791	-0.281
in vitro model: intracellular J774, time point: constant = terminal	–	0.994	–	-0.166	-0.569

Settings	AUC25, [4]	Einf, [3]	FIC50, [2]	FIC90, [1]	GRinf, [5]
in vitro model: butyrate, time point: constant (~7 days, model-specific)	0.0986	0.866	0.466	–	0.133
in vitro model: butyrate, time point: terminal (~4-5 doublings, model-specific)	0.0883	0.817	0.636	–	-0.101
in vitro model: cholesterol 0.05 mM, time point: constant (~7 days, model-specific)	0.129	0.722	–	–	-0.326
in vitro model: cholesterol 0.05 mM, time point: terminal (~4-5 doublings, model-specific)	0.14	0.901	-0.0968	–	-0.224
in vitro model: cholesterol-high 0.2 mM, time point: constant (~7 days, model-specific)	0.0356	0.843	0.961	–	-0.204
in vitro model: cholesterol-high 0.2 mM, time point: terminal (~4-5 doublings, model-specific)	0.0539	0.999	0.865	0.821	-0.777
in vitro model: dormancy (butyrate + nitrate, low O2), time point: constant (~7 days, model-specific)	0.0925	0.813	-0.134	–	0.463
in vitro model: dormancy (butyrate + nitrate, low O2), time point: terminal (~4-5 doublings, model-specific)	0.085	0.945	0.32	-0.408	0.154
in vitro model: standard 7H9 glycerol, time point: constant = terminal	0.0625	0.873	0.18	–	0.0807
in vitro model: valerate, time point: constant (~7 days, model-specific)	0.0825	0.705	-0.152	–	0.281
in vitro model: valerate, time point: terminal (~4-5 doublings, model-specific)	0.0643	0.862	0.447	–	0.248

CC[C@@H](CO)NCCN[C@@H](CC)CO [ethambutol] + NNC(=O)c1ccncc1 [isoniazid]
Settings	AUC25, [4]	Einf, [3]	FIC50, [2]	FIC90, [1]	GRinf, [5]
in vitro model: acidic pH 5.7, time point: constant (~7 days, model-specific)	0.134	0.693	1.2	–	-0.17
in vitro model: acidic pH 5.7, time point: terminal (~4-5 doublings, model-specific)	0.0706	0.919	0.67	0.229	0.00119
in vitro model: intracellular J774, time point: constant = terminal	–	1	–	-0.439	-0.332

Settings	AUC25, [4]	Einf, [3]	FIC50, [2]	FIC90, [1]	GRinf, [5]
in vitro model: butyrate, time point: constant (~7 days, model-specific)	0.075	0.933	0.509	–	-0.0966
in vitro model: butyrate, time point: terminal (~4-5 doublings, model-specific)	0.0681	0.973	0.525	0.423	-0.109
in vitro model: cholesterol 0.05 mM, time point: constant (~7 days, model-specific)	0.0891	0.73	0.389	–	-0.157
in vitro model: cholesterol 0.05 mM, time point: terminal (~4-5 doublings, model-specific)	0.0491	0.862	0.82	–	-0.106
in vitro model: cholesterol-high 0.2 mM, time point: constant (~7 days, model-specific)	0.0277	0.905	0.561	–	-0.31
in vitro model: cholesterol-high 0.2 mM, time point: terminal (~4-5 doublings, model-specific)	0.0319	1	0.775	0.501	-0.731
in vitro model: dormancy (butyrate + nitrate, low O2), time point: constant (~7 days, model-specific)	0.104	0.818	-0.0762	–	0.454
in vitro model: dormancy (butyrate + nitrate, low O2), time point: terminal (~4-5 doublings, model-specific)	0.0973	0.964	-0.121	-0.0702	-0.0063
in vitro model: standard 7H9 glycerol, time point: constant = terminal	0.0635	0.92	0.483	0.426	0.0262
in vitro model: valerate, time point: constant (~7 days, model-specific)	0.111	0.897	0.108	–	0.0449
in vitro model: valerate, time point: terminal (~4-5 doublings, model-specific)	0.0612	0.935	0.332	0.345	0.0607
